A short description of data set [1]: Cytotoxicity against PMA-differentiated human U937 macrophages assessed as reduction in cell viability after 24 hrs by MTT assay. The class given is cell-based. Conditions: u-937, 24 h.
A short description of data set [2]: Antiinflammatory activity in PMA-differentiated human U937 cells assessed as inhibition of LPS-stimulated IL-6 secretion at 500 uM preincubated for 2 hrs followed by LPS-stimulation measured after 24 hrs by ELISA relative to control. The class given is functional. Conditions: U-937. Background: An ELISA detects its analyte on a solid surface through an enzyme-linked reagent.

Data set [3] in a line: Antiinflammatory activity in PMA-differentiated human U937 cells assessed as inhibition of LPS-stimulated IL-6 secretion at 250 uM preincubated for 2 hrs followed by LPS-stimulation measured after 24 hrs by ELISA relative to control. The class given is functional. Conditions: U-937.
A short description of data set [4]: Antiinflammatory activity in PMA-differentiated human U937 cells assessed as inhibition of LPS-stimulated IL-6 secretion at 125 uM preincubated for 2 hrs followed by LPS-stimulation measured after 24 hrs by ELISA relative to control. The class given is functional. Conditions: U-937.
Data set [5] in a line: Antiinflammatory activity in PMA-differentiated human U937 cells assessed as inhibition of LPS-stimulated IL-6 secretion at 62.5 uM preincubated for 2 hrs followed by LPS-stimulation measured after 24 hrs by ELISA relative to control. The class given is functional. Conditions: U-937.
Data set [6] is described as follows: Antiinflammatory activity in PMA-differentiated human U937 cells assessed as inhibition of LPS-stimulated IL-8 secretion at 500 uM preincubated for 2 hrs followed by LPS-stimulation measured after 24 hrs by ELISA relative to control. The class given is functional. Conditions: U-937.
Data set [7] is described as follows: Antiinflammatory activity in PMA-differentiated human U937 cells assessed as inhibition of LPS-stimulated IL-8 secretion at 250 uM preincubated for 2 hrs followed by LPS-stimulation measured after 24 hrs by ELISA relative to control. The class given is functional. As to conditions: U-937.
Data set [8] can be described thus: Antiinflammatory activity in PMA-differentiated human U937 cells assessed as inhibition of LPS-stimulated IL-8 secretion at 125 uM preincubated for 2 hrs followed by LPS-stimulation measured after 24 hrs by ELISA relative to control. The class given is functional. Conditions: U-937.
Data set [9] can be described thus: Antiinflammatory activity in PMA-differentiated human U937 cells assessed as inhibition of LPS-stimulated IL-8 secretion at 62.5 uM preincubated for 2 hrs followed by LPS-stimulation measured after 24 hrs by ELISA relative to control. The class given is functional. As to conditions: U-937.
Data set [10] is described as follows: Antiinflammatory activity in PMA-differentiated human U937 cells assessed as inhibition of LPS-stimulated IL-1beta secretion at 500 uM preincubated for 2 hrs followed by LPS-stimulation measured after 24 hrs by ELISA relative to control. The class given is functional. As to conditions: U-937.
The nature of data set [11]: Antiinflammatory activity in PMA-differentiated human U937 cells assessed as inhibition of LPS-stimulated IL-1beta secretion at 250 uM preincubated for 2 hrs followed by LPS-stimulation measured after 24 hrs by ELISA relative to control. The class given is functional. As to conditions: U-937.
Data set [12] is described as follows: Antiinflammatory activity in PMA-differentiated human U937 cells assessed as inhibition of LPS-stimulated IL-1beta secretion at 125 uM preincubated for 2 hrs followed by LPS-stimulation measured after 24 hrs by ELISA relative to control. The class given is functional. Conditions: U-937.
Data set [13] in a line: Antiinflammatory activity in PMA-differentiated human U937 cells assessed as inhibition of LPS-stimulated IL-1beta secretion at 62.5 uM preincubated for 2 hrs followed by LPS-stimulation measured after 24 hrs by ELISA relative to control. The class given is functional. As to conditions: U-937.
Data set [14] is described as follows: Antiinflammatory activity in PMA-differentiated human U937 cells assessed as inhibition of LPS-stimulated TNF-alpha secretion at 500 uM preincubated for 2 hrs followed by LPS-stimulation measured after 24 hrs by ELISA relative to control. The class given is functional. Conditions: U-937.
Data set [15] can be described thus: Antiinflammatory activity in PMA-differentiated human U937 cells assessed as inhibition of LPS-stimulated TNF-alpha secretion at 250 uM preincubated for 2 hrs followed by LPS-stimulation measured after 24 hrs by ELISA relative to control. As to conditions: U-937. The class given is functional.
Data set [16] in a line: Antiinflammatory activity in PMA-differentiated human U937 cells assessed as inhibition of LPS-stimulated TNF-alpha secretion at 125 uM preincubated for 2 hrs followed by LPS-stimulation measured after 24 hrs by ELISA relative to control. The class given is functional. Conditions: U-937.
The nature of data set [17]: Antiinflammatory activity in PMA-differentiated human U937 cells assessed as inhibition of LPS-stimulated TNF-alpha secretion at 62.5 uM preincubated for 2 hrs followed by LPS-stimulation measured after 24 hrs by ELISA relative to control. As to conditions: U-937. The class given is functional.
A short description of data set [18]: Antiinflammatory activity in human U937-3xkB-luc cells assessed as inhibition of LPS-induced NFkappaB activation at 100 uM preincubated for 30 mins followed by LPS-stimulation measured after 6 hrs by luciferase assay relative to control. The class given is functional. As to conditions: U-937.
A short description of data set [19]: Antiinflammatory activity in human U937-3xkB-luc cells assessed as inhibition of LPS-induced NFkappaB activation at 20 uM preincubated for 30 mins followed by LPS-stimulation measured after 6 hrs by luciferase assay relative to control. Conditions: U-937. The class given is functional.
Data set [20] is described as follows: Antiinflammatory activity in human U937-3xkB-luc cells assessed as inhibition of LPS-induced NFkappaB activation at 5 uM preincubated for 30 mins followed by LPS-stimulation measured after 6 hrs by luciferase assay relative to control. The class given is functional. Conditions: U-937.
Data set [21] deals with U-937. The experiment in a line: (§1) Antiinflammatory activity in PMA-differentiated human U937 cells assessed as inhibition of LPS-stimulated IL-6 secretion preincubated for 2 hrs followed by LPS-stimulation measured after 24 hrs by ELISA relative to control. The class given is functional.
Data set [22] has as its system U-937. As to the kind of experiment: (§2) Antiinflammatory activity in PMA-differentiated human U937 cells assessed as inhibition of LPS-stimulated TNF-alpha secretion preincubated for 2 hrs followed by LPS-stimulation measured after 24 hrs by ELISA relative to control. The class given is functional.
The nature of data set [23]: Antiinflammatory activity in human U937-3xkB-luc cells assessed as inhibition of LPS-induced NFkappaB activation preincubated for 30 mins followed by LPS-stimulation measured after 6 hrs by luciferase assay relative to control. The class given is functional, U-937.
Data set [24] can be described thus: Antiinflammatory activity in PMA-differentiated human U937 cells assessed as inhibition of LPS-stimulated IL-1beta secretion preincubated for 2 hrs followed by LPS-stimulation measured after 24 hrs by ELISA relative to control. The class given is functional, U-937.
Data set [25] can be described thus: as §1. The class given is functional, U-937.
Data set [26] can be described thus: Antiinflammatory activity in PMA-differentiated human U937 cells assessed as inhibition of LPS-stimulated IL-8 secretion preincubated for 2 hrs followed by LPS-stimulation measured after 24 hrs by ELISA relative to control. The class given is functional, U-937.
Data set [27] is described as follows: as §2. The class given is functional, U-937.

One may read the inhibition as the drop in the measured response relative to a control, in per cent. As for `COc1cc(C(CO)C(c2ccc(O)c(OC)c2)c2ccc(O)c(OC)c2)ccc1O` (configuration not stated), the Activity in [1] came to 500 µM. For the same compound, the inhibition at 500 µM in data set [2] turned out to be 84.3%; in [6] it was 0.3%; in [10] it was 0.9%; in data set [14], 60%. Also, the inhibition at 250 µM in data set [3] is 62.6%; in [7] it was 0%; in [11] it was 9.4%; in data set [15], 17.5%. Besides, the inhibition at 125 µM is 45.5% in data set [4], 0.2% in data set [8], 25.1% in data set [12] and 19.8% in data set [16]. Moreover, the inhibition at 62.5 µM in data set [5] worked out at 1.1%; in [9], 0%; in [13], 1.1%; in [17], 0%. In addition, the inhibition at 100 µM in data set [18] came to 43.4%. Moreover, the inhibition at 20 µM in data set [19] was determined as 13.5%. The inhibition at 5 µM in data set [20] was 11.2%. Moreover, the inhibition result in [21] and in data set [22] was “Dose-dependent effect” in each case.
As for `Cc1ccc(S(=O)(=O)/C=C/C#N)cc1`, the “inhibition (INH)” value in [23] came to 99.3%; in data set [24] it was 95.9%; in data set [25] it was 99.2%; in [26], 99.1%; in [27], 99.5%.

Source of the values: ChEMBL document CHEMBL3745650, “Anti-inflammatory properties of quebecol and its derivatives” (Bioorg Med Chem Lett, 2016).
